From PubChem BioAssay AID1259411 (Chemical Carcinogenesis Research Information System (CCRIS), 2018) come the findings set out here.

The series has as its system rodent carcinogenicity bioassays, tumor incidence. In words: CCRIS carcinogenicity studies. In short, it runs like this: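 NCI-built, expert-reviewed records of carcinogenicity and related test outcomes (mutagenicity, tumor promotion/inhibition) compiled from published and report sources, historical span 1985-2011, not updated.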

Calls of active or inactive are those of the source. How the calls were made is not given here.

On to `c1ccccc1`, for which the carcinogen call reads like this: (Species: HUMAN, Route: INHALATION, DERMAL, Tumor Site: Type of Lesion: HEMATOPOIETIC SYSTEM (LEUKEMIA)) “active; positive”; (Species: MOUSE, Route: INHALATION, Dose: 0, 300 PPM 6 HR/D 5 D/WK FOR 16 WK (STUDY DURATION: LIFETIME), Tumor Site: Type of Lesion: HEMATOPOIETIC SYSTEM: LYMPHOMA) “active; positive”; (Species: MOUSE, Strain/Sex: B6C3F1/FEMALE, Route: GAVAGE, Dose: 0, 25, 50, 100 MG/KG IN CORN OIL 5 D/WK FOR 103 WK, Dose: 0, 25, 50, 100 MG/KG IN CORN OIL 5 D/WK FOR 103 WK, Tumor Site: Type of Lesion: LUNG: ALVEOLAR/BRONCHIOLAR CARCINOMA, ALVEOLAR/BRONCHIOLAR ADENOMA OR CARCINOMA, HEMATOPOIETIC SYSTEM: MALIGNANT LYMPHOM) “active; positive”; (Species: MOUSE, Strain/Sex: B6C3F1/MALE, Route: GAVAGE, Dose: 0, 25, 50, 100 MG/KG IN CORN OIL 5 D/WK FOR 103 WK, Dose: 0, 25, 50, 100 MG/KG IN CORN OIL 5 D/WK FOR 103 WK, Tumor Site: Type of Lesion: LUNG: ALVEOLAR/BRONCHIOLAR CARCINOMA, ALVEOLAR/BRONCHIOLAR ADENOMA, HEMATOPOIETIC SYSTEM: MALIGNANT LYMPHOMA, LEUKEMIA O) “active; positive”; (Species: MOUSE, Strain/Sex: C57BL/FEMALE, Route: INHALATION, Dose: 0, 300 PPM 6 HR/D 5 D/WK FOR 16 WK (STUDY DURATION: 64 WK), Tumor Site: Type of Lesion: LYMPHATIC SYSTEM: LYMPHOMA) “active; positive”; (Species: MOUSE, Strain/Sex: C57BL/FEMALE, Route: INHALATION, Dose: 0, 300 PPM 6 HR/D 5 D/WK FOR 16 WK (STUDY DURATION: 750 D), Tumor Site: Type of Lesion: HEMATOPOIETIC SYSTEM: LYMPHOCYTIC LEUKEMIA, LEUKEMIA, THYMUS GLAND: LEUKEMIA, ZYMBAL GLAND: TUMOR, OVARY: TUMOR, Tumor Site: Type of Lesion: HEMATOPOIETIC SYSTEM: LYMPHOCYTIC LEUKEMIA, LEUKEMIA, THYMUS GLAND: LEUKEMIA, ZYMBAL GLAND: TUMOR, OVARY: TUMOR) “active; positive”. The carcinogen call runs as follows: (Species: MOUSE, Strain/Sex: C57BL/MALE, Route: INHALATION, Dose: 0, 300 PPM 6HR/D, 5D/WK FOR 1 WK FOLLOWED BY 2 WK NO TREATMENT, CYCLE REPEATED FOR LIFESPAN (STUDY DURATION: LIFESPAN), Tumor Site: Type of Lesion: LUNG: ADENOMA, HEMATOPOIETIC SYSTEM: LEUKEMIA OR LYMPHOMA, ZYMBAL GLAND: CARCINOMA, Tumor Site: Type of Lesion: LUNG: ADENOMA, HEMATOPOIETIC SYSTEM: LEUKEMIA OR LYMPHOMA, ZYMBAL GLAND: CARCINOMA) “active; positive”; (Species: MOUSE, Strain/Sex: C57BL/MALE, Route: INHALATION, Dose: 0, 300 PPM 6 HR/D, 5 D/WK FOR LIFE, Tumor Site: Type of Lesion: HEMATOPOIETIC SYSTEM: LYMPHOCYTIC LYMPHOMA) “active; positive”; (Species: MOUSE, Strain/Sex: C57BL/MALE, Route: INHALATION, Dose: 0, 1200 PPM 6HR/D, 5D/WK FOR 10 WK (STUDY DURATION: LIFESPAN)) “inactive; negative”; (Species: MOUSE, Strain/Sex: CBA/CA BNL/FEMALE, Route: INHALATION, Dose: 0, 300 PPM 6 HR/D 5 D/WK FOR 16 WK (STUDY DURATION: >1100 D), Tumor Site: Type of Lesion: HEMATOPOIETIC SYSTEM: MYELOGENOUS NEOPLASM) “active; positive”; (Species: MOUSE, Strain/Sex: CBA/CA BNL/MALE, Route: INHALATION, Dose: 0, 100, 300 PPM 6 HR/D 5 D/WK FOR 16 WK (STUDY DURATION: >1100 D), Dose: 0, 100, 300 PPM 6 HR/D 5 D/WK FOR 16 WK (STUDY DURATION: >1100 D), Tumor Site: Type of Lesion: HEMATOPOIETIC SYSTEM: MYELOGENOUS NEOPLASM) “active; positive”; (Species: MOUSE, Strain/Sex: CBA/MALE, Route: INHALATION, Dose: 0, 300 PPM 6 HR/D 5 D/WK FOR 16 WK (STUDY DURATION: 22 MO), Tumor Site: Type of Lesion: LYMPHATIC SYSTEM: MALIGNANT LYMPHOMA, PREPUTIAL GLAND: SQUAMOUS CELL CARCINOMA, LUNG: ADENOMA, Tumor Site: Type of Lesion: LYMPHATIC SYSTEM: MALIGNANT LYMPHOMA, PREPUTIAL GLAND: SQUAMOUS CELL CARCINOMA, LUNG: ADENOMA) “active; positive”. Also, the carcinogen call (Species: MOUSE, Strain/Sex: CD-1/MALE, Route: INHALATION, Dose: 0, 300 PPM 6HR/D, 5D/WK FOR 1 WK FOLLOWED BY 2 WK NO TREATMENT, CYCLE REPEATED FOR LIFESPAN (STUDY DURATION: LIFESPAN), Tumor Site: Type of Lesion: LUNG: ADENOMA, HEMATOPOIETIC SYSTEM: LEUKEMIA OR LYMPHOMA, ZYMBAL GLAND: CARCINOMA, Tumor Site: Type of Lesion: LUNG: ADENOMA, HEMATOPOIETIC SYSTEM: LEUKEMIA OR LYMPHOMA, ZYMBAL GLAND: CARCINOMA) was “active; positive”; the carcinogen call (Species: MOUSE, Strain/Sex: CD-1/MALE, Route: INHALATION, Dose: 0, 1200 PPM 6HR/D, 5D/WK FOR 10 WK (STUDY DURATION: LIFESPAN), Tumor Site: Type of Lesion: LUNG: ADENOMA, HEMATOPOIETIC SYSTEM: LEUKEMIA OR LYMPHOMA, ZYMBAL GLAND: CARCINOMA, Tumor Site: Type of Lesion: LUNG: ADENOMA, HEMATOPOIETIC SYSTEM: LEUKEMIA OR LYMPHOMA, ZYMBAL GLAND: CARCINOMA) was “active; positive”; the carcinogen call (Species: MOUSE, Strain/Sex: EU-PIM-1/FEMALE, Route: GAVAGE, Dose: 0, 50, 100 MG/KG 1/D FOR 40 WK (STUDY DURATION: 40 WK), Dose: 0, 50, 100 MG/KG 1/D FOR 40 WK (STUDY DURATION: 40 WK)) was “inactive; negative”; the carcinogen call (Species: MOUSE, Strain/Sex: EU-PIM-1/MALE, Route: GAVAGE, Dose: 0, 50, 100 MG/KG 1/D FOR 40 WK (STUDY DURATION: 40 WK), Dose: 0, 50, 100 MG/KG 1/D FOR 40 WK (STUDY DURATION: 40 WK)) is “inactive; negative”; the carcinogen call (Species: MOUSE, Strain/Sex: SWISS/FEMALE, Route: GAVAGE, Dose: 0, 500 MG/KG IN OLIVE OIL 1/D FOR 4 TO 5 D/WK FOR 78 WK (STUDY DURATION: LIFETIME), Tumor Site: Type of Lesion: MAMMARY GLAND: CARCINOMA, LUNG: TUMORS, ZYMBAL GLAND: CARCINOMA, Tumor Site: Type of Lesion: MAMMARY GLAND: CARCINOMA, LUNG: TUMORS, ZYMBAL GLAND: CARCINOMA) was “active; positive”; the carcinogen call (Species: MOUSE, Strain/Sex: SWISS/FEMALE, Route: INTRAGASTRIC, Dose: 0, 500 MG/KG IN OLIVE OIL 1/D 4-5 D/WK FOR 78 WK (STUDY DURATION: LIFESPAN), Tumor Site: Type of Lesion: LUNG: ADENOMA, MAMMARY GLAND: MALIGNANT TUMOR) was “active; positive”. Further, the carcinogen call was “inactive; negative” (Species: MOUSE, Strain/Sex: SWISS/FEMALE, Route: INTRAPERITONEAL, Dose: 0, 36.1, 137.3 UMOL ADMINISTERED AS 3 UNEQUAL DOSES (1/7, 2/7, AND 4/7 OF THE TOTAL DOSE) OVER A 2-WK PERIOD (STUDY DURA, Dose: 0, 36.1, 137.3 UMOL ADMINISTERED AS 3 UNEQUAL DOSES (1/7, 2/7, AND 4/7 OF THE TOTAL DOSE) OVER A 2-WK PERIOD (STUDY DURA); “active; positive” (Species: MOUSE, Strain/Sex: SWISS/MALE, Route: GAVAGE, Dose: 0, 500 MG/KG IN OLIVE OIL 1/D FOR 4 TO 5 D/WK FOR 78 WK (STUDY DURATION: LIFETIME), Tumor Site: Type of Lesion: LUNG: TUMOR, ZYMBAL GLAND: CARCINOMA); “active; positive” (Species: MOUSE, Strain/Sex: SWISS/MALE, Route: INTRAGASTRIC, Dose: 0, 500 MG/KG IN OLIVE OIL 1/D 4-5 D/WK FOR 78 WK (STUDY DURATION: LIFESPAN), Tumor Site: Type of Lesion: ZYMBAL GLAND: CARCINOMA, LUNG: ADENOMA); “inactive; negative” (Species: MOUSE, Strain/Sex: SWISS/MALE, Route: INTRAPERITONEAL, Dose: 0, 36.1, 137.3 UMOL ADMINISTERED AS 3 UNEQUAL DOSES (1/7, 2/7, AND 4/7 OF THE TOTAL DOSE) OVER A 2-WK PERIOD (STUDY DURA, Dose: 0, 36.1, 137.3 UMOL ADMINISTERED AS 3 UNEQUAL DOSES (1/7, 2/7, AND 4/7 OF THE TOTAL DOSE) OVER A 2-WK PERIOD (STUDY DURA); “active; positive (highest dose)” (Species: Mouse, Strain/Sex: C57BL/6 (heterozygous Trp53-deficient)/Male, Route: Inhalation, Dose: 0, 33, 100, 300 ppm 6 hr/d, 5 d/wk for 26 wks, then no exposure for lifetime, Dose: 0, 33, 100, 300 ppm 6 hr/d, 5 d/wk for 26 wks, then no exposure for lifetime, Tumor Site: Type of Lesion: Blood: hematopoietic neoplasms (38, 41, 36, 89%). Lymphoid tissue: thymic lymphoma (0, 4,16, 73%)).
